Measured values: US20240140933A1, “OXOINDOLINE COMPOUND FOR THE TREATMENT OF INFLAMMATORY DISEASES OR CANCER” (Hoffmann-La Roche Inc., priority 2021, published 2024)

Target: PDHK1 (Homo sapiens (Human), UniProt Q15118)
Experiment: PDHK1 enzymatic assay (AlphaScreen, phosphorylation of PDHE1 S293)
Assay type: biochemical
Conditions: 1 nM PDHK1, 25 nM PDHE1, 20 μM ATP, 30° C. for 45 minutes
From the text: Pyruvate dehydrogenase complex (PDHc) is an enzyme that catalyzes the reaction of pyruvate and a lipoamide to give the acetylated dihydrolipoamide and carbon dioxide. PDHc has three subunits E1, E2 and E3. E1 has 3 serine phosphorylation sites S293, S232, S300. If E1 was phosphorylated, PDH will be inactivated. PDHK can phosphorylate PDH protein (also named PDHE1) in PDH complex (PDC) to inactivate it.

Chain of PDHK1 (Q15118 29-436): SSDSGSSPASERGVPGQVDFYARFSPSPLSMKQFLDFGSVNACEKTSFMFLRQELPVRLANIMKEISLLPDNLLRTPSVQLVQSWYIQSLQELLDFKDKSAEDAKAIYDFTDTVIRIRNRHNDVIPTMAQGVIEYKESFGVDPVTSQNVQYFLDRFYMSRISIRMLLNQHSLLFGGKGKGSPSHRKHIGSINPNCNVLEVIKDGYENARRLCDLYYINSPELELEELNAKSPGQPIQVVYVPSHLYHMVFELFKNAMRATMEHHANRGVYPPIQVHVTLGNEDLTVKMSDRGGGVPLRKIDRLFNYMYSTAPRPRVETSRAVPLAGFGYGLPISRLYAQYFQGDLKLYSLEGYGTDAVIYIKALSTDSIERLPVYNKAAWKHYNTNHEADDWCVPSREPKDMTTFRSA

Enzymatic IC50 against PDHK1: 0.025 µg/mL
Compound: CCNc1cc(F)cc2c1NC(=O)C2(C)N1CC[C@H](F)[C@@H](Nc2ccc(C#N)nc2)C1 (stereo partly drawn) [Example 48, 5-[[(3S,4S)-1-[7-(ethylamino)-5-fluoro-3-methyl-2-oxo-indolin-3-yl]-4-fluoro-3-piperidyl]amino]pyridine-2-carbonitrile]
